In one series the test system is P4 cells. The series can be described thus: Cytotoxicity (CC50), MTT assay on P4 cells. Particulars: 3 days. The format is cell-based. The method, then: (§1) For the antiviral and the cytotoxicity assays, the drugs were diluted in complete DMEM medium. In these experiments, drugs were diluted in triplicate wells in a 96-well plate in six, 5 fold serial dilutions.
(§2) The 50% cytotoxic concentration (CCso) was determined using a protocol adapted from Pauwels et al. (1988. J. Virol. Methods 20(4):309-21). Briefly, flat bottom 96-well plates were filled with 50 μl of complete medium containing 5.10^3 P4 cells. 2 hours later 50 μl of drug solution were added to the cells. Drugs (dissolved in DMEM, see above) were diluted in six, 5-fold serial dilutions from stock solutions in triplicate wells of a 96-well plate. Cells and compounds were incubated at 37° C. in growth medium for 3 days. Cell viability was determined by MTT assays using the Roche Cell Proliferation KIT. The absorbance (λ=570 nm) was measured on a Benchmark™ Microplate Reader (Biorad) and compared with 12 cell control replicates (no drug added). Each assay was performed at least three times for a total of at least nine replicate wells. This method detects both cytostatic and cytolytic effects of drugs.
For orientation: Tetrazolium dyes change colour on reduction, which living cells bring about.

Series [1] concerns HIV-1 with WT (wild type) RT in PBMC. The series can be described thus: Anti-HIV assay on PBMC, WT RT (p24). The format is cell-based. As to the method: Wurzburg Jurkat T cells (subclone JR) were transfected with 10 μg of the circularly permuted infectious molecular clone HIVNL4-3 (Adachi et al., 1986. J. Virol, 59 (2), p 284-291). Two days later, co-cultivation with SupT1 cells (a human T-cell lymphoma cell line) was initiated to facilitate rapid production of progeny virions. Production of virus was measured by using the Innotest HIV Antigen mAb p24 kit (Innogenetics). At the peak of production cultures were harvested and filtered. The virus stocks were stored at −80° C. until used.
Anti-HIV activity of the compounds was tested on Peripheral Blood Mononuclear Cells (PBMCs). These cells were separated from the blood of healthy donor using established procedures. PBMCs were cultured in RPMI medium supplemented with 10% fetal bovine serum (FBS), 1% Penicillin/Streptomycin and 20 U/ml of Interleukin-2.
PBMCs isolated from the blood of healthy donor contain CD4^+ T-lymphocytes which are one of the main targets of HIV in infected individuals.
Briefly, in the anti-HIV assay PBMCs, activated with phytohemagglutinin, were infected with HIV-1. 100 μl of infected PBMCs were seeded in 96-well plate at a concentration of 1 10^5 cells/ml, and 100 μl of the different drugs dilutions were added to the cells. After 4 days of incubation at 37° C., 5% CO2, cells cultures supernatants were collected. The amount of the viral capsid protein p24 in the supernatants was measured using the Innotest HIV Antigen mAb P24 kit (Innogenetics).

Series [2] deals with HIV-1 mutant Asn103/Ile108RT in TZM-bl cells. The series can be described thus: Anti-HIV assay on TZM-bl cells, Asn103/Ile108RT double mutant. The format is cell-based. The note with it: read-out: EC50 Asn103/Ile108RT TZM-bl. An excerpt:
(§3) In order to introduce mutation(s) at the level of the pol gene coding for the RT in the pNL4-3 plasmid containing the complete viral genome (Adachi et al., 1986. J. Virol., Vol. 59 p 284-291) we used the “Quick change mutagenesis kit” (Stratagene). The following mutations were separately introduced in pNL4-3: L100I, K103N, V108I, Y181C, Y188C, and the double mutations K103N/V108I. These mutations were chosen because of the resistance that they confer to existing NNRTI. The production procedure of the mutant viral stocks is identical to the one described above.
(§4) Anti-HIV activity and cytotoxicity of the compounds were tested on the TZM-b1 cell line. The TZM-b1 cell line (Wei et al. 2002. Antimicrob. Agents Chemother. Vol. 46, p 1896-1905) was received from the NIH AIDS Research and Reference Reagent Program. These cells were cultured in complete DMEM medium supplemented with 10% fetal bovine serum (FBS), and 1% Penicillin/Streptomycin. Exponentially growing cells were trypsinized, centrifuged and split twice weekly at 5 10^4 cells/ml.
(§5) The anti-HIV assay with TZM-b1 cells is essentially the same as described above with P4 cells. The main difference between the two cell lines is that the TZM-b1 cells express at their surface both the CD4 and CCR5 proteins, acting as receptor and co-receptor for HIV entry, respectively (Wei et al. 2002. Antimicrob. Agents Chemother. Vol. 46, p 1896-1905). This feature makes the cells very sensitive to infection by the virus. The TMZ-b1 cells were infected with equal amount of cell-free virus, corresponding to 10 ng of HIV p24 antigen. This amount is ten times lower than the amount used to infect the P4 cells.

Series [3] in a line: Cytotoxicity (CC50), MTT assay on P4 cells. The series is classed as cell-based. The note with it: human. The method, then:
as §1, §2

The test system of series [4] is HIV-1 mutant Cys188RT in TZM-bl cells. The series can be described thus: Anti-HIV assay on TZM-bl cells, Cys188RT mutant. The format is cell-based. The note with it: read-out: EC50 Cys188RT TZM-bl.
Text: as §3, §4, §5

Series [5] relates to HIV-1 with WT (wild type) RT in P4 cells. The note with it: published values; read-out: Nevirapine activity, published values; cited from earlier work.
The mark [6] stands for this setting: Human immunodeficiency virus 1, TZM-bl.
The mark [7] stands for this setting: TZM-bl, double mutant Asn103/Ile108RT.

The values that follow come from patent publication US20070275953A1 (priority 2003, published 2007).

pEC50: −log10 of the molar value. Like-named read-outs stand apart in the source and are kept apart here. Some results are limits rather than exact numbers.

Regarding `CCOC(=O)c1c(OC2CC(C)CC(C)C2)c(CC)c(C)[nH]c1=O` (single isomer, unassigned) [Z37inv], in the series on P4 cells, the CC50 (as a rule, the concentration at which the toxic effect on the cells reaches its halfway point) was 64000 nM. In addition, the pEC50 in series [1] is 7.27.

In the case of `O=C1Nc2ccc(Cl)cc2[C@@](C#CC2CC2)(C(F)(F)F)O1` [Efavirenz, reference compound], the pEC50 in series [2] (setting [6]) is 6.82; in series [4] (setting [6]), greater than 9.00. This molecule yielded a CC50 at 3 days in series [3] of 40000 nM.

For the molecule `Cc1ccnc2c1NC(=O)c1cccnc1N2C1CC1` [Nevirapine, reference compound], the pEC50 was 7.00 to 8.00 in series [5], 7.52 in series [1] (Human immunodeficiency virus 1) and 5.57 in series [4] (setting [6]). For the same molecule, the CC50 at 3 days in series [3] was greater than 100000 nM.

Take `CCc1c(C)[nH]c(=O)c(CO)c1OC1CC(C)CC(C)C1` (centres unmarked) [Z45inv]: in the series on P4 cells, it took 76000 nM to reach half-maximal cytotoxicity (CC50). In series [1], this molecule showed a pEC50 of 7.74.

On to `CCc1c(C)[nH]c(=O)c([N+](=O)[O-])c1OC1CC(C)CC(C)C1` (centres unmarked) [Z91inv, 3-nitro-5-ethyl-6-methyl-4-[(3,5-dimethylcyclohexyl)oxy]pyridine-2(1H)-one], for which the melting point (as a rule, the temperature of the solid-liquid transition) fell in the range of 206 to 207 °C. This molecule registered a CC50 at 3 days in series [3] of 37200 nM. In series [1] (Human immunodeficiency virus 1), the pEC50 is greater than 9.00.

In the series on P4 cells, `CCc1c(C)[nH]c(=O)c(CSC(C)=O)c1OC1CC(C)CC(C)C1` (centres unmarked) [Z114] displayed a CC50 of 8000 nM. For the same molecule, the pEC50 was greater than 9.00 in series [1] and 9.00 in series [4] (TZM-bl, mutant Cys188RT).

As for `CCc1c(C)[nH]c(=O)c(N(C)C)c1OC1CC(C)CC(C)C1` (centres unmarked) [Z150, 3-(dimethylamino)-5-ethyl-6-methyl-4-[(3,5-dimethylcyclohexyl)oxy]pyridine-2(1H)-one], the melting point lay in the range of 129 to 130 °C. The pEC50 in series [2] (setting [6]) was 6.80. This molecule also displayed a CC50 at 3 days in series [3] of 66000 nM. In addition, the pEC50 in series [4] (setting [6]) is greater than 9.00.

For `CCc1c(C)[nH]c(=O)c(CN=[N+]=[N-])c1OC1CC(C)CC(C)C1` (centres unmarked) [Z153], the pEC50 in series [2] (setting [7]) is 6.44; in series [4] (TZM-bl, mutant Cys188RT) it was greater than 9.00. In the series with P4 cells, it took 54000 nM to reach half-maximal cytotoxicity (CC50).

As to `CCc1c(C)[nH]c(=O)c(C)c1OC1CC(C)CC(C)C1` (centres unmarked) [Z154], in series [2] (setting [7]), the pEC50 was 6.64. This molecule also had a CC50 in the series on P4 cells of 80000 nM.
